# The source made the active and inactive calls. No cut-off for these calls is given here.
# Legend:
# [1] = system: RBL-2H3; test: Antiallergic activity against antigen-IgE-mediated degranulation in rat RBL2H3 cells assessed as inhibition of DNP-BSA-induced intracellular pathway at 50 uM after 30 mins; format: functional, cell-based
# [2] = system: RBL-2H3; test: Antiallergic activity against antigen-IgE-mediated degranulation in rat RBL2H3 cells assessed as inhibition of DNP-BSA-induced beta-hexosaminidase release at 10 to 100 uM; format: functional, cell-based
# [3] = system: RBL-2H3; test: Antiallergic activity against antigen-IgE-mediated degranulation in rat RBL2H3 cells assessed as reduction in DNP-BSA-induced intracellular calcium level at 50 uM after 30 mins; format: functional, cell-based
# [4] = system: RBL-2H3; test: Antiallergic activity against antigen-IgE-mediated degranulation in rat RBL2H3 cells assessed as reduction in DNP-BSA-induced ROS production at 50 uM after 30 mins; format: functional, cell-based
# [5] = system: RBL-2H3; test: Antioxidant activity […] assessed as DPPH radical scavenging activity; format: functional
# [6] = system: RBL-2H3; test: Antiallergic activity against antigen-IgE-mediated degranulation in rat RBL2H3 cells assessed as inhibition of translocation of cytosolic subunit of NADPH oxidase by immunofluorescence technique; format: functional, cell-based
# [7] = system: RBL-2H3; test: Antiallergic activity against antigen-IgE-mediated degranulation in rat RBL2H3 cells assessed as inhibition of translocation of p47phox cytosolic subunit of NADPH oxidase by immunofluorescence technique; format: functional, cell-based
# [8] = system: RBL-2H3; test: Inhibition of NOX-mediated calcium in rat RBL2H3 cells mobilization assessed as antigen-IgE-mediated degranulation; format: cell-based
SMILES,Activity [1],Activity [2],Activity [3],Activity [4],Activity [5],Activity [6],Activity [7],inhibition [8]
COc1ccc(/C=C/C(=O)c2ccc(O[C@@H]3O[C@H](CO)[C@@H](O)[C@H](O)[C@H]3O)c(OC)c2)cc1,Active,Active,Active,Active,inactive,Active,Active,Active
COc1cc(C(=O)/C=C/c2ccc(O)cc2)ccc1O[C@@H]1O[C@H](CO)[C@@H](O)[C@H](O)[C@H]1O,Active,Active,Active,Active,inactive,Active,Active,Active

# — ChEMBL document CHEMBL1250527, “Chalcone glycosides isolated from aerial parts of Brassica rapa L. 'hidabeni' suppress antigen-stimulated degranulation in rat basophilic leukemia RBL-2H3 cells” (Bioorg Med Chem, 2010)
